Test results taken from article PMC11877631, “Novel Nucleus-Oriented Quenched Activity-Based Probes Link Cathepsin Nuclear Localization with Mitosis” (ACS Sensors, 2025).

Tests used:
[1] = system: NIH-3T3 cells; test: Live cell confocal imaging; type: cell-based, mouse; details: NIH-3T3, 2.5 μM, 6 h; for Nuclear cathepsin labeling (confocal Z-stack, costaining with Hoechst): 63× objective; for Probe staining intensity in live cells: fluorescence microscopy
Protocol: (§1) NIH-3T3 or HeLa cells were seeded in an 8-well coverslip chamber (Lab-Tek) at a density of 100,000 cells per well and grown at 37 °C under 5% of CO2, 24 h later, cells were treated with 2.5 μM KRSs probes for 6 h. The medium was replaced with DMEM without phenol red, and Hoechst was added to a final concentration of 5 μg/mL. Live imaging of cells using a Zeiss LSM 710 Axio Observer.Z1 with a 63/24 Oil DIC M27 lens, in Cy3 and DAPI channels, was performed over 24 h; pictures were taken every 20–25 min. The Z-stack analysis was performed using 3–5 different depths focusing on the cell nucleus; each slice was 1–1.5 μm. Image processing was performed using NIS-Elements image acquisition software, quantifying the 63× images of several experiments and calculating the average fluorescence intensity. Statistics and standard deviation were calculated by using Microsoft Excel.

[2] = Quenching efficiency (fluorescent plate reader); type: physicochemical; details: lower fluorescence than average of nonquenched probes; slope ratio; 0.013–10 μM in acetate buffer pH 5.5; Ex./Em. 535/570 nm
Protocol: Increasing concentrations (0.013–10 μM) of KRS (A1-F1), in acetate buffer (50 mM acetate, 5 mM MgCl2, 2 mM DTT, pH 5.5), were prepared in a 96-well plate. Fluorescence was measured and quantified using a BioRad plate reader, Ex./Em. 535/570 nm. Arbitrary fluorescent units were plotted versus probe concentration, and the ratio between the slope of each quenched probe and the average of the nonquenched probes were determined as quenching efficiency.

[3] = system: HeLa cells; test: Subcellular fractionation with fluorescent SDS-PAGE; type: cell-based, human; details: 2.5 μM, 6 h; for Active cathepsin in nuclear fraction: 20 μg protein per fraction
Protocol: Cell fractionation was performed according to the manufacturer’s instructions using the Subcellular Protein Fractionation Kit for Cultured Cells (Pierce, Thermo Fisher Scientific Inc., Rockford, IL, USA, number 78840). Lysed cells were separated into subsequent cytosol, membrane, and nuclear fractions. Extracted proteins were subjected to SDS PAGE separation and fluorescence and Western blot analysis.

[4] = molecular target: T1, intracellular cathepsin B in NIH-3T3 cells (Mus musculus, UniProt P10605); type: cell-based; details: for Labeling of intracellular cathepsin B: live NIH-3T3, 6 h probe incubation, band intensity, in comparison to probes without the CPP
T1 construct: KRS probes freely penetrated the cells and labeled endogenous cathepsins in a dose-dependent manner; endogenous in cells; host or cells: NIH-3T3
T1 sequence (P10605 80-333 limits assumed): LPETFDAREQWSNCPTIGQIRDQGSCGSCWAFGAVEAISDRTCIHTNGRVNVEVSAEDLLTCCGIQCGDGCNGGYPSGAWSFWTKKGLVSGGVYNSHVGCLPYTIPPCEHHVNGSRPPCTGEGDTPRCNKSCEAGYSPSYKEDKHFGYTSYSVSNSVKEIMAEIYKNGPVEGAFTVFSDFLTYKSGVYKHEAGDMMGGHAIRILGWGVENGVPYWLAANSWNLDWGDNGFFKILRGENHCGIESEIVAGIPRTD
Protocol: (§2) NIH-3T3 cells (2.5 × 10^5 cells/well) were seeded in a 12-well plate 1 day prior to treatment. Cells were pretreated with inhibitor GB111-NH2 or vehicle for 30 min followed by incubation with KRS probes at indicated concentrations predissolved in 0.1% DMSO and 0.9% ethanol in a culture medium. After 6 h of probe incubation cells were washed with PBS and lysed by addition of sample buffer as described above. Lysates were boiled for 5 min, centrifuged, and separated by 12.5% SDS-PAGE. Cathepsins labeled in cells were visualized by scanning the gel with a Typhoon laser scanner at Ex./Em. 535/570 nm.

[5] = molecular target: T2, intracellular cathepsin L in NIH-3T3 cells (Mus musculus, UniProt P06797); test: Probe labeling in intact cells, fluorescent SDS-PAGE; type: cell-based; details: live NIH-3T3, 6 h probe incubation, band intensity; in comparison to probes without the CPP
T2 construct: KRS probes freely penetrated the cells and labeled endogenous cathepsins in a dose-dependent manner; endogenous in cells; host or cells: NIH-3T3
T2 sequence (P06797 114-334): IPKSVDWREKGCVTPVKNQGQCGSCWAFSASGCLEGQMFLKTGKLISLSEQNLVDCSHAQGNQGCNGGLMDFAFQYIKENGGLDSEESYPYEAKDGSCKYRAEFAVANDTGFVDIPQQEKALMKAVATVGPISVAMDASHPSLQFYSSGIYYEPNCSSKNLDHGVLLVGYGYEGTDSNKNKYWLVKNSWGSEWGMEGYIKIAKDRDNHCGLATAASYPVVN
Protocol: as §2

[6] = molecular target: Recombinant human cathepsin S (Homo sapiens, UniProt P25774); test: Recombinant cathepsin labeling, fluorescent SDS-PAGE; type: binding; details: pH 5.5, 37 °C, probe intensities compared with KRS-D1(qAc), GB111-NH2 given as pretreatment before KRS probes
Chain of Recombinant human cathepsin S (P25774 115-331): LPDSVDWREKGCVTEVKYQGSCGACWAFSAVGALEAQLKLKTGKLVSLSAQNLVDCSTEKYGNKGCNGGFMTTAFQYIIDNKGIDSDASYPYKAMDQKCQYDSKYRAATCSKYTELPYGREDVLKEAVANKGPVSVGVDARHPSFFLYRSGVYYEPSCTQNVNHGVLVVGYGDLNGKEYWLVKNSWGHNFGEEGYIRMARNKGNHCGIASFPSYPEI
Protocol: (§3) Recombinant human cathepsins B (0.7 μg), L (0.6 μg), or S (0.7 μg) in reaction buffer (50 mM acetate, 5 mM MgCl2, 2 mM DTT, pH 5.5) was pretreated with the cathepsin inhibitor GB111-NH2 or vehicle for 30 min at room temp. Indicated concentrations of KRS probes were added to the samples for 30 min at 37 °C. The reaction was stopped by adding 4× sample buffer (40% glycerol, 0.2 M Tris/HCl 6.8, 20% β-mercaptoethanol, 12% SDS, and 0.4 mg/mL bromophenol blue). The samples were boiled and separated by a 12% SDS gel and scanned by a Typhoon laser scanner at Ex./Em. 535/570 nm for fluorescence.

[7] = molecular target: Recombinant human cathepsin L (Homo sapiens, UniProt P07711); test: as above; type: binding; details: pH 5.5, 37 °C, probe intensities compared with KRS-D1(qAc), GB111-NH2 given as pretreatment before KRS probes
Chain of Recombinant human cathepsin L (P07711 114-333): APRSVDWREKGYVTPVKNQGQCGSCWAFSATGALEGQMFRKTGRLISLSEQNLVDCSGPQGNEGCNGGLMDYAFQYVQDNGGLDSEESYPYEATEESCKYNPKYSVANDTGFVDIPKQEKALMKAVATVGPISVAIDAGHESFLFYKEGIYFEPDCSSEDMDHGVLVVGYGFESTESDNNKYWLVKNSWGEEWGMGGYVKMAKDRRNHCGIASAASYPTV
Protocol: as §3

[8] = molecular target: Recombinant human cathepsin B (Homo sapiens, UniProt P07858); test: as above; type: binding; details: pH 5.5, 37 °C, probe intensities compared with KRS-D1(qAc), GB111-NH2 given as pretreatment before KRS probes
Protocol: as §3

[9] = system: HeLa cells; type: cell-based, human
Protocol: (§4) NIH-3T3 cells (2.5 × 10^5 cells/well) or HeLa cells (2.0 × 10^5 cells/well) were seeded in a 12-well plate 1 day before treatment. Cells were incubated with KRS probes at 2.5 μM predissolved in 0.1% DMSO and 0.9% ethanol in a culture medium for indicated durations. After the incubation, cells were washed with PBS and lysed by the addition of sample buffer. Samples were analyzed by fluorescent SDS-PAGE as described above.

[10] = system: NIH-3T3 cells; type: cell-based, mouse
Protocol: as §4

[11] = system: HeLa cells; test: Live cell confocal imaging and time-lapse movies; type: cell-based, human
Protocol: as §1

[12] = system: HeLa cells; test: Image Streamer flow imaging, fixed cells; type: cell-based, human; details: 6 h, Draq5 stain
Protocol: Live or methanol fixed cells were pretreated with KRS probes at 2.5 μM for 6 h predissolved in 0.1% DMSO and 0.9% ethanol in a culture medium. After the incubation, cells were washed with PBS centrifuged and dissolved in PBS in a final volume of 50 μL. The DNA markers: Hoechst (Thermo Fisher) at a final concentration of 1 μg/mL or Draq5 (Thermo Fisher) at a final concentration of 1.5 μM were added. The samples were analyzed using an Image StreamX Flow Imager system (Merk Millipore).

Ac-Cys-Phe-Phe-Lys-(TMR-X)-AOMK-QSY7 [KRS-D1(qAc)]
Nuclear cathepsin labeling (confocal Z-stack, costaining with Hoechst) [1]: did not detect cathepsins in the nucleus
Probe staining intensity in live cells [1]: relatively weak staining
Fold quenching (quenching efficiency) [2]: 61 fold

NLS-Cys-Phe-Phe-Lys-(TMR-X)-AOMK-Ac [KRS-F1(NLS)]
Probe staining intensity in live cells [1]: intense staining

Ac-Cys-Phe-Phe-Lys-(TMR-X)-AOMK-Ac [KRS-C1(Ac)]
Probe staining intensity in live cells [1]: relatively weak staining

NLS-Cys-Phe-Phe-Lys-(TMR-X)-AOMK-QSY7 [KRS-E1(qNLS)]
Intensity in fractions relative to KRS-B1(qTAT) [3]: weaker intensity
Active cathepsin in nuclear fraction [3]: clear presence of active nuclear cathepsin
Cell permeability / cell penetration [4]: significantly greater cell penetration
Labeling of intracellular cathepsin B [4]: enhanced labeling
Nuclear cathepsin labeling (confocal Z-stack, costaining with Hoechst) [1]: label nuclear cathepsins
Probe staining intensity in live cells [1]: intense staining
Fold quenching (quenching efficiency) [2]: 54 fold
Labeling of intracellular cathepsin L [5]: enhanced labeling
Fluorescence labeling of recombinant cathepsin S [6]: slightly lower
Fluorescence labeling of recombinant cathepsin L [7]: slightly lower
Fluorescence labeling of recombinant cathepsin B [8]: slightly lower

TAT-Cys-Phe-Phe-Lys-(TMR-X)-AOMK-Ac [KRS-A1(TAT)]
Binding relative to the other probes ([4]; as seen in Figures 2 and 6a): strongest binding of all probes
Labeling of intracellular cathepsin B [4]: enhanced labeling
Probe staining intensity in live cells [1]: intense staining
Labeling of intracellular cathepsin L [5]: enhanced labeling
Permeability in time-course labeling [9]: enhanced and accelerated permeability
Permeability in time-course labeling [10]: enhanced and accelerated permeability

Cc1cccc(C)c1C(=O)OCC(=O)[C@H](CCCCN)NC(=O)[C@H](Cc1ccccc1)NC(=O)OCc1ccccc1 [GB111-NH2, reference compound]
Fluorescent signal of KRS probes after inhibitor pretreatment ([11]; live HeLa, 2.5 μM GB111-NH2 pretreatment, then KRS-B1(qTAT) or KRS-E1(qNLS) 6 h): strongly reduced
Fluorescence labeling of recombinant cathepsin S [6]: dramatically reduced
Fluorescence labeling of recombinant cathepsin L [7]: dramatically reduced
Fluorescence labeling of recombinant cathepsin B [8]: dramatically reduced

TAT-Cys-Phe-Phe-Lys-(TMR-X)-AOMK-QSY7 [KRS-B1(qTAT)]
Active cathepsin in nuclear fraction [3]: clear presence of active nuclear cathepsin
Cell permeability / cell penetration [4]: significantly greater cell penetration
Labeling of intracellular cathepsin B [4]: enhanced labeling
Nuclear cathepsin activity (TMR-X and Draq5 similarity) [12]: much higher degree
Nuclear cathepsin labeling (confocal Z-stack, costaining with Hoechst) [1]: label nuclear cathepsins
Probe staining intensity in live cells [1]: intense staining
Fold quenching (quenching efficiency) [2]: 66 fold
Labeling of intracellular cathepsin L [5]: enhanced labeling
Permeability in time-course labeling [9]: enhanced and accelerated permeability
Effect on entry of cells to mitosis ([11]; HeLa, 2.5 μM, time-lapse over 22 h): inhibited the entry of cells to mitosis
Fluorescence labeling of recombinant cathepsin S [6]: slightly lower
Fluorescence labeling of recombinant cathepsin L [7]: slightly lower
Fluorescence labeling of recombinant cathepsin B [8]: slightly lower
Permeability in time-course labeling [10]: enhanced and accelerated permeability
